Data published in patent US20070191493A1, “Use of n-alkanols as activators of the cftr channel” (priority 2003, published 2007).

Tests used:
CHO cells = assay: ATP-induced calcium response (cellular uncoupling) in CHO cells; assay type: cell-based, Chinese hamster; conditions: α-GA 10 to 100 μM, octan-1-ol 1 mM
Description: The Ca^2+ measurements are carried out in the presence of fura-2 (impermeant fluorescent probe) which binds […]. The cells are incubated in serum-free DMEM/F12 culture medium in the presence of the permeant form of fura-2 (fura-2/AM, 2.5 μM) for 1 h at 37° C. The cells, placed on the platform of an epifluorescent microscope (Olympus) (20× objective), are perfused with the solutions to be tested (e.g. ATP, octanol). They are sequentially illuminated at 340 nm and 380 nm and the fluorescence emitted (F) is measured at 510 nm. It is detected via a 12-bit CCD camera (Sony) connected to a data processing computer unit (TILL Photonics). The intracellular Ca^2+ concentration [Ca^2+]i is calculated using the Grynckiewicz equation (Grynckiewicz et al., 1985): [Ca^2+]i=Kdi *(R−Rmin/Rmax−R), based on the ratiometric analysis R (340/380 nm) of the fluorescence (TILL Vision); Rmax and Rmin denote the ratio of fluorescence measured in the presence or in the absence of Ca^2+.

CHO-CFTR(-) cells = assay: 125I iodide efflux in CHO-CFTR(-) control cells that do not express CFTR; assay type: cell-based, Chinese hamster; conditions: octan-1-ol 0.1 to 5 mM, FSK 5 μM, A23187 2 μM
CFTR channel [1] = target: T1, CFTR channel (Homo sapiens, UniProt P13569); assay: whole-cell patch-clamp in CHO-CFTR(+) cells; assay type: cell-based; design: expressed in transfected cells; host or cells: CHO (Chinese hamster ovary) cells, CHO-CFTR(+)
Excerpt: The patch-clamp technique consists in applying a glass pipette or a glass microelectrode to the surface of the cell. By applying slight touch, it is possible to cause the membrane to adhere to the glass. A small piece of membrane (patch) is thus isolated at the end of the pipette. This is the principle of patch-clamp (O. P. Hamill et al., Pflügers Arch., 1981, 391, 85-100; R. Penner, A Practical Guide to Patch Clamping, 1995, In Single Channel Recording, 2nd edition (Eds. B. Sakmann et al.) Plenum Press, New York, 3-30). To do this, the patch-clamp pipette must have a tip of the order of 1 μm in diameter and a resistance of the order of 1-5 MΩ. The resistance of a pipette or of a microelectrode makes it possible to assess the fineness of the tip: the greater the resistance, the finer the tip or the more the electrode is blocked. […] Interactions between the membrane and the glass will form, aided by a slight suction or negative pressure in the pipette. The quality of this interaction (or sealing) is also assessed by measuring the resistance between the glass and the membrane. To measure overall currents in the whole cell configuration, a sealing resistance of 1 GΩ is sufficient.
(§1) More specifically, culture dishes (cell support) are placed in an experimentation cell (volume 1 ml) on the platform of an inverted microscope (Nikon) equipped with phase-contrast lighting. The whole-cell configuration is used for recording the cell currents (Hamill et al., 1981). The experiments are carried out at ambient temperature (20-22° C.). The currents are amplified with an Axopatch 200B amplifier (Axon Instrument Ltd) having a 2-5 kHz low-pass filter (Bessel 6-pole filter), and recorded on the hard disk of a PC after digitization at 10-25 kHz. The pipettes are produced from glass tubes 1 mm in diameter (Clark Electromedical Instrument) in four steps with a horizontal drawing device (Bruwn Flaming 97, CA).
(§2) The pipettes, filled with an intracellular solution containing, in mM: 60 KCl; 80 NMDG ([…]); 10 HEPES; 5 EGTA; 1 CaCl2; 4 MgATP; 0.2 Na3GTP; pH 7.4, titrated with KOH), having a resistance of 5 MΩ. The potentials are expressed as the difference between the potential of the patch electrode and that of the bath. In the whole-cell configuration, they represent the membrane potential of the cell. The junction potentials that form between the recording electrode and the extracellular medium are eliminated before the contact of the electrode with the cell. […] The current-voltage relationships in the stationary state are determined using slow voltage ramps (20 mV/.s) under an imposed voltage condition. […]

CFTR channel [2] = target: T1, CFTR channel; assay: whole-cell patch-clamp in CHO-BQ1 cells, reversibility after washing; assay type: cell-based; design: expressed in transfected cells; host or cells: CHO-BQ1 cells; conditions: octan-1-ol 1 mM, washing 15 min with physiological saline
Description: as §1
as §2, with “cell.” for “cell. The junction potentials that form between the recording electrode and the extracellular medium are eliminated before the contact of the electrode with the cell.”

T1 sequence (P13569 whole entry): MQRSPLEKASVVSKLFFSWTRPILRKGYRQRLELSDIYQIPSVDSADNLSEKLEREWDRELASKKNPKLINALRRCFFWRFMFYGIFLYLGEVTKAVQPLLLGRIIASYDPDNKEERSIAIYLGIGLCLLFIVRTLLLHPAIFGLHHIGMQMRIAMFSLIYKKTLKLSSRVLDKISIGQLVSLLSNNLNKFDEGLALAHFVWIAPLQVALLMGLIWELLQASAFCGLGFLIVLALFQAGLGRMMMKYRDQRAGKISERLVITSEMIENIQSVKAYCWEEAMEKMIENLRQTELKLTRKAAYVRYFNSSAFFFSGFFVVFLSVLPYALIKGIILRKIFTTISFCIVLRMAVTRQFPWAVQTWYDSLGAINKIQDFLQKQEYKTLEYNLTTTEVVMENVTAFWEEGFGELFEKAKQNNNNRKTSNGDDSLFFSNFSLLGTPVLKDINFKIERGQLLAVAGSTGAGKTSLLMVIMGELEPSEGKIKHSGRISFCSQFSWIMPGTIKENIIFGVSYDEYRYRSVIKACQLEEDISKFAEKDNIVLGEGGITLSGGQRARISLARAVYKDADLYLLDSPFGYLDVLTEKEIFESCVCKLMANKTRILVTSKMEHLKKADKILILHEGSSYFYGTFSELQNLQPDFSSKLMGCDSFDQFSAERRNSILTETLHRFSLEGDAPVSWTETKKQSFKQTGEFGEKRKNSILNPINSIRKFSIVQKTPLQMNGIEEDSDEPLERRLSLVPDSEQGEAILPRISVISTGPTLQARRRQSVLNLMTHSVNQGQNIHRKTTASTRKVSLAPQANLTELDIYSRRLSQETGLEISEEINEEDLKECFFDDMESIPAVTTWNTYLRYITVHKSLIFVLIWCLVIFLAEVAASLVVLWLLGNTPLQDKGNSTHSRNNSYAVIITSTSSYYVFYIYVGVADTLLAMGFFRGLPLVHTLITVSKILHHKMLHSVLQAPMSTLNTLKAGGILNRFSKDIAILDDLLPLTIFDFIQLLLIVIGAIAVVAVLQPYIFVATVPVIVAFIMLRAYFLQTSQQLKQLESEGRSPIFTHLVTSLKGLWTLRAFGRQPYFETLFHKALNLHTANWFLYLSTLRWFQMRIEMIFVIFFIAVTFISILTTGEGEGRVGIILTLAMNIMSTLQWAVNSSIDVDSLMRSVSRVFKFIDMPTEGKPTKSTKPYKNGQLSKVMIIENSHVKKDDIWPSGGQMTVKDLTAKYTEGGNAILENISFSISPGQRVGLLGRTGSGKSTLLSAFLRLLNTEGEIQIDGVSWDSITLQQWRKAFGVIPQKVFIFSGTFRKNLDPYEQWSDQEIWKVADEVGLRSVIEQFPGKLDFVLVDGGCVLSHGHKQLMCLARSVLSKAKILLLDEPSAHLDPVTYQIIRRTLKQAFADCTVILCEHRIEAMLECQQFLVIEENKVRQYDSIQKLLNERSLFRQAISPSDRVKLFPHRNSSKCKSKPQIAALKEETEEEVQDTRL

activation of the CFTR channel by patch-clamp, in words (CFTR channel [1]; octan-1-ol alone 1 mM, without FSK): full activation
reversion potential of the induced current (CFTR channel [1]; whole-cell, FSK- or octan-1-ol-induced current): 1±0.6 mV
increase in membrane conductance compared with the control (CFTR channel [1]; whole-cell, FSK 1 μM, octan-1-ol 1 mM): approximately 10 fold
reversibility of the activating effect on CFTR (CFTR channel [2]): reversible
SMILES: CCCCCCCCO [octan-1-ol]
cellular uncoupling shown by ATP-induced calcium response (CHO cells): clearly uncouples the cells
effect on basal level of 125I efflux in cells not expressing CFTR (CHO-CFTR(-) cells): do not significantly modify the basal level
